Earlier results, collected in patent publication US20250275917A1, “TOPICAL FOAMABLE PHARMACEUTICAL COMPOSITION” (EUROFARMA LABORATORIOS S.A., priority 2021, published 2025).

Conditions: systemic absorption

Nc1cc(N2CCCCC2)nc(N)[n+]1[O-] [Minoxidil]
concentration associated with adverse effects: 20 ng/mL
